Laboratory results from patent publication US20160257697A1, “THIOPHENE-SUBSTITUTED TETRACYCLIC COMPOUNDS AND METHODS OFUSE THEREOF FOR THE TREATMENT OF VIRAL DISEASES” (priority 2013, published 2016).
pIC50: −log10 of the molar value. Where two headings read alike, the source gives them in different places.

Assays:
Assay in all cases: microbe, parasite or virus in culture
Type in all cases: cell-based, Hepatitis C virus (HCV)
[1] = test system: HCV replicon 1AY93H; conditions: Replicon Assay A; for IC50: read-out: 1A Y93H IC50 (nM), replicon 1AY93H
Outline: (§1)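 Cells seeded 2000/well + compound; 0.5% DMSO, 5% FBS; harvest day 3, lyse. Multiplex TaqMan RT-PCR for replicon (Neo probe) and cyclophilin RNA; amounts from Ct vs log(ng) linear regression of replicon total RNA standards.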

[2] = test system: HCV replicon 1A; conditions: Replicon Assay A
Outline: as §1

[3] = test system: HCV replicon 2B; conditions: Replicon Assay A
Outline: as §1

[4] = Hepatitis C virus, read-out: 1A Y93H IC50, HCV replicon 1A Y93H
[5] = Hepatitis C virus, HCV replicon 1A
[6] = Hepatitis C virus, read-out: 2B IC50, HCV replicon 2B
[7] = read-out: 1A Y93H IC50, HCV replicon 1A Y93H
[8] = read-out: 2B IC50, HCV replicon 2B
[9] = read-out: 1A Y93H IC50, replicon 1AY93H

In the case of COC(=O)N[C@H](C(=O)N1CCC[C@H]1c1nc(-c2cc(F)c3c(c2)OC(c2ccc(C4CC4)s2)n2c-3cc3cc(-c4c[nH]c([C@@H]5C[C@H]6C[C@H]6N5C(=O)[C@@H](NC(=O)OC)[C@@H](C)OC)n4)ccc32)c[nH]1)C(C)C (mixture of isomers) [Compound 723], the pIC50 [1, 4] was 10.34, the pIC50 [2, 5] was 11.57 and the pIC50 [3, 6] was 10.10.
COCc1ccc(C2Oc3cc(-c4cnc([C@@H]5CCCN5C(=O)[C@@H](NC(=O)OC)C(C)C)[nH]4)cc(F)c3-c3cc4cc(-c5cnc([C@@H]6CCCN6C(=O)[C@@H](NC(=O)OC)[C@@H]6C[C@@H](C)O[C@@H](C)C6)[nH]5)ccc4n32)s1 (single isomer, unassigned) [Compound 533] gave a pIC50 [1, 7] of 10.04, a pIC50 ([2]; HCV replicon 1A) of 11.43 and a pIC50 [3, 8] of 9.37.
Compound COC(=O)N[C@H](C(=O)N1CCC[C@H]1c1ncc(-c2cc(F)c3c(c2)OC(c2csc4ccccc24)n2c-3cc3cc(-c4cnc([C@@H]5CCCN5C(=O)[C@@H](NC(=O)OC)C(C)C)[nH]4)ccc32)[nH]1)C(C)C (single isomer, unassigned) [Compound 324] has a pIC50 [1, 9] of 8.31, a pIC50 ([2]; replicon 1A) of 11.85 and a pIC50 ([3]; read-out: 2B IC50, replicon 2B) of 8.10.
COC(=O)N[C@H](C(=O)N1CCC[C@H]1c1ncc(-c2cc(F)c3c(c2)OC(c2ccc(C(C)C(F)(F)F)s2)n2c-3cc3cc(-c4cnc([C@@H]5CCCN5C(=O)[C@@H](NC(=O)OC)C(C)C)[nH]4)ccc32)[nH]1)C(C)C (single isomer, unassigned) [Compound 132] gave an IC50 ([1]; Hepatitis C virus) of 4.93 nM, a pIC50 ([2]; Hepatitis C virus, replicon 1A) of 11.49 and a pIC50 ([3]; read-out: 2B IC50, replicon 2B) of 8.22.
Work on CCc1ccc(C2Oc3cc(-c4cnc([C@@H]5CCCN5C(=O)[C@@H](NC(=O)OC)C(C)C)[nH]4)cc(F)c3-c3cc4cc(-c5cnc([C@@H]6CCCN6C(=O)C(NC(=O)OC)C6C[C@@H](C)O[C@@H](C)C6)[nH]5)ccc4n32)s1 (single isomer, unassigned) [Compound 142] yielded a pIC50 [1, 9] of 9.60, a pIC50 ([2]; replicon 1A) of 11.70 and a pIC50 ([3]; read-out: 2B IC50, replicon 2B) of 9.32.
COC(=O)NC(C(=O)N1[C@@H]2C[C@@H]2C[C@H]1c1ncc(-c2ccc3c(c2)cc2n3C(c3cc4ccccc4s3)Oc3cc(-c4cnc([C@@H]5CCCN5C(=O)[C@@H](NC(=O)OC)C(C)C)[nH]4)cc(F)c3-2)[nH]1)C1C[C@@H](C)O[C@@H](C)C1 (single isomer, unassigned) [Compound 648] gave a pIC50 [1, 4] of 8.69, a pIC50 ([2]; HCV replicon 1A) of 11.44 and a pIC50 [3, 8] of 8.77.
For COC(=O)NC(C(=O)N1CCC[C@H]1c1ncc(-c2ccc3c(c2)cc2n3C(c3ccc(F)s3)Oc3cc(-c4cnc([C@@H]5CCCN5C(=O)[C@@H](NC(=O)OC)C(C)C)[nH]4)cc(F)c3-2)[nH]1)C1C[C@@H](C)O[C@@H](C)C1 (single isomer, unassigned) [Compound 349], the pIC50 [1, 9] was 9.57, the pIC50 ([2]; replicon 1A) was 11.85 and the pIC50 ([3]; read-out: 2B IC50, replicon 2B) was 9.41.
CCN(CC)[C@@H](C(=O)N1C[C@H](F)C[C@H]1c1nc(-c2ccc3c(c2)cc2n3C(c3cc(C)c(C)s3)Oc3cc(-c4c[nH]c([C@@H]5C[C@@H](F)CN5C(=O)[C@@H](NC(=O)OC)C(C)C)n4)ccc3-2)c[nH]1)c1ccccc1 (mixture of isomers) [Compound 724] gave a pIC50 [1, 4] of 9.43, a pIC50 [2, 5] of 10.20 and a pIC50 [3, 6] of 7.82.
Compound COC(=O)NC(C(=O)N1CCC[C@H]1c1ncc(-c2cc(F)c3c(c2)OC(c2ccc(C(C)C)s2)n2c-3cc3cc(-c4cnc([C@@H]5CCCN5C(=O)[C@@H](NC(=O)OC)C(C)C)[nH]4)ccc32)[nH]1)C1CCOC(C)(C)C1 (single isomer, unassigned) [Compound 246] has an IC50 ([1]; Hepatitis C virus) of 0.58 nM, a pIC50 ([2]; Hepatitis C virus, replicon 1A) of 11.96 and an IC50 ([3]; Hepatitis C virus, read-out: 2B IC50 (nM), replicon 2B) of 0.27 nM.
For COC(=O)NC(C(=O)N1CCC[C@H]1c1ncc(-c2ccc3c(c2)cc2n3C(c3ccc(C4CC4)s3)Oc3cc(-c4cnc([C@@H]5CCCN5C(=O)[C@@H](NC(=O)OC)C(C)C)[nH]4)cc(F)c3-2)[nH]1)C1CCO[C@H](C)C1 (single isomer, unassigned) [Compound 137], the pIC50 [1, 9] was 9.55, the pIC50 ([2]; replicon 1A) was 11.74 and the pIC50 ([3]; read-out: 2B IC50, replicon 2B) was 9.43.
In the case of COC(=O)N[C@H](C(=O)N1C2CC2C[C@H]1c1ncc(-c2cc(F)c3c(c2)OC(c2ccc(C4CC4)s2)n2c-3cc3cc(-c4cnc([C@@H]5CCCN5C(=O)[C@@H](NC(=O)OC)C5C[C@@H](C)O[C@@H](C)C5)[nH]4)ccc32)[nH]1)C(C)C (single isomer, unassigned) [Compound 556], the pIC50 [1, 7] was 9.60, the pIC50 ([2]; HCV replicon 1A) was 10.29 and the pIC50 [3, 8] was 9.01.
Work on COC(=O)N[C@H](C(=O)N1CCC[C@H]1c1ncc(-c2cc(F)c3c(c2)OC(c2scc4c2OCCO4)n2c-3cc3cc(-c4cnc([C@@H]5C[C@H](F)CN5C(=O)[C@@H](NC(=O)OC)C(C)C)[nH]4)ccc32)[nH]1)C(C)C (single isomer, unassigned) [Compound 527] yielded a pIC50 [1, 7] of 8.51, a pIC50 ([2]; HCV replicon 1A) of 10.81 and a pIC50 [3, 8] of 7.48.
